Measurements from ChEMBL document CHEMBL4627413, “Targeted Delivery of Antisense Oligonucleotides Using Neurotensin Peptides” (J Med Chem, 2020).

Assays:
[1] = Drug uptake in HEK293 cells incubated for 2 hrs by flow cytometry; assay type: ADME, cell-based; settings: human, hek293, 2 h
Sortilin = molecular target: T1, Sortilin (Homo sapiens, UniProt Q99523); assay: Substrate activity at human SORT1 expressed in HEK293 cells assessed as compound uptake incubated for 2 hrs by flow cytometry; assay type: ADME, cell-based; settings: hek293, 2 h
T1 sequence (Q99523 whole entry): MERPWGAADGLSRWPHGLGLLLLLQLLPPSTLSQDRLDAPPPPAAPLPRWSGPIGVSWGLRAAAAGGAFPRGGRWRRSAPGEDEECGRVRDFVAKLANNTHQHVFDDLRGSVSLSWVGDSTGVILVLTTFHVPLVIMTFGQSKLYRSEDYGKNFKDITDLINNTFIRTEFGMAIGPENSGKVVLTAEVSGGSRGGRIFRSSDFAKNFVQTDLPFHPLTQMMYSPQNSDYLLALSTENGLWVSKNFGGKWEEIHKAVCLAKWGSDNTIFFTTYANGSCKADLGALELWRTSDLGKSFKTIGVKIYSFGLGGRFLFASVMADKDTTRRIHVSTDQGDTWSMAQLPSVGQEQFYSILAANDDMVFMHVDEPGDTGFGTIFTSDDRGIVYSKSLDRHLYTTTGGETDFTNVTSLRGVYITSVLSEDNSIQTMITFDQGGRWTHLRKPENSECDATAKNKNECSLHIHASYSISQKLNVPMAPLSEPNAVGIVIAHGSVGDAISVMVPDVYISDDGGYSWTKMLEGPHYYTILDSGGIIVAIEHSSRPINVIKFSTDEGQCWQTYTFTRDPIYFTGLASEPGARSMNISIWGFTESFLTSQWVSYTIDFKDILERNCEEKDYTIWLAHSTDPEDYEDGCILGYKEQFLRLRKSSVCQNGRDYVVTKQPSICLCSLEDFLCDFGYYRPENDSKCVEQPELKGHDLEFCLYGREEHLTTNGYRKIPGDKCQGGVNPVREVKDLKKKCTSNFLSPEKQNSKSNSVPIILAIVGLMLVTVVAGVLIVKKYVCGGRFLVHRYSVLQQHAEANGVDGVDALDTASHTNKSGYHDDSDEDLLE

Row | Drug uptake [1] | Km (Sortilin) | Vmax (Sortilin) | Compound
1 | Not Active | 0.08 µM | 1397 | CC[C@H](C)[C@H](NC(=O)[C@H](Cc1ccc(O)cc1)NC(=O)[C@@H]1CCCN1C(=O)[C@H](CCCNC(=N)N)NC(=O)[C@H](CCCNC(=N)N)NC(=O)[C@@H]1CCCN1C(=O)[C@H](CCCCN)NC(=O)[C@H](CC(N)=O)NC(=O)[C@H](CCC(=O)O)NC(=O)[C@H](Cc1ccc(O)cc1)NC(=O)[C@H](CC(C)C)NC(=O)[C@@H](N)CCCCNC(=O)Cn1nnc2c1CC[C@H]1[C@@H](CC2)[C@H]1COC(=O)NCCOCCOCCNC(=O)CCCCC[N+]1=C(/C=C/C=C2/N(C)c3ccccc3C2(C)C)C(C)(C)c2ccccc21)C(=O)N[C@@H](CC(C)C)C(=O)O.[Cl-]
2 | – | – | 1367 | CC[C@H](C)[C@H](NC(=O)[C@H](Cc1ccc(O)cc1)NC(=O)[C@@H]1CCCN1C(=O)[C@H](CCCNC(=N)N)NC(=O)[C@H](CCCNC(=N)N)NC(=O)[C@@H]1CCCN1C(=O)[C@H](CCCCN)NC(=O)[C@H](CC(N)=O)NC(=O)[C@H](CCC(=O)O)NC(=O)[C@H](Cc1ccc(O)cc1)NC(=O)[C@H](CC(C)C)NC(=O)CNC(=O)[C@@H]1CCCN1C(=O)[C@H](CO)NC(=O)[C@H](CO)NC(=O)CNC(=O)[C@H](C)NC(=O)[C@@H]1CCCN1C(=O)[C@@H]1CCCN1C(=O)[C@@H]1CCCN1C(=O)[C@@H](N)CCCCNC(=O)Cn1nnc2c1CC[C@H]1[C@@H](CC2)[C@H]1COC(=O)NCCOCCOCCNC(=O)CCCCC[N+]1=C(/C=C/C=C2/N(C)c3ccccc3C2(C)C)C(C)(C)c2ccccc21)C(=O)N[C@@H](CC(C)C)C(=O)O.[Cl-]
